Experiments:
[1] = system: Hepatitis C virus; assay: Antiviral activity against HCV subtype 1a infected in Huh-7 cells assessed as reduction in viral RNA level at 33.1 uM after 8 to 10 days by quantitative PCR analysis in presence of ribavirin; type: functional, Hepacivirus hominis
[2] = system: Hepatitis C virus; assay: Antiviral activity against HCV subtype 1a infected in Huh-7 cells assessed as reduction in viral RNA level at 33.1 uM after 8 to 10 days by quantitative PCR analysis; type: functional, Hepacivirus hominis
[3] = Selectivity index, ratio of CC50 for human HuH7 cells to EC50 for HCV subtype 1a; parameters: species or system Huh-7
[4] = Cytotoxicity against human HuH7 cells after 2 days by XTT assay; type: cell-based, Huh-7
[5] = system: Hepatitis C virus; assay: Antiviral activity against HCV subtype 1a infected in Huh-7 cells assessed as reduction in viral RNA level after 8 to 10 days by quantitative PCR analysis; type: functional, organism-based, Hepacivirus hominis
[6] = system: Hepatitis C virus; assay: Antiviral activity against HCV subtype 1a infected in Huh-7 cells assessed as reduction in viral RNA level at 66.2 uM after 8 to 10 days by quantitative PCR analysis; type: functional, Hepacivirus hominis
[7] = system: Hepatitis C virus; assay: Antiviral activity against HCV subtype 1a infected in Huh-7 cells assessed as reduction in viral RNA level at 72.9 uM after 8 to 10 days by quantitative PCR analysis; type: functional, Hepacivirus hominis
[8] = system: Hepatitis C virus; assay: Antiviral activity against HCV subtype 1a infected in Huh-7 cells assessed as reduction in viral RNA level at 83.3 uM after 8 to 10 days by quantitative PCR analysis; type: functional, Hepacivirus hominis
[9] = system: Hepatitis C virus; assay: Antiviral activity against HCV subtype 1a infected in Huh-7 cells assessed as reduction in viral RNA level at 69.7 uM after 8 to 10 days by quantitative PCR analysis; type: functional, Hepacivirus hominis
[10] = system: Hepatitis C virus; assay: Antiviral activity against HCV subtype 1a infected in Huh-7 cells assessed as reduction in viral RNA level at 69.4 uM after 8 to 10 days by quantitative PCR analysis; type: functional, Hepacivirus hominis
[11] = system: Hepatitis C virus; assay: Antiviral activity against HCV subtype 1a infected in Huh-7 cells assessed as reduction in viral RNA level at 41 uM after 8 to 10 days by quantitative PCR analysis; type: functional, Hepacivirus hominis
[12] = system: Hepatitis C virus; assay: Antiviral activity against HCV subtype 1a infected in Huh-7 cells assessed as reduction in viral RNA level at 81.9 uM after 8 to 10 days by quantitative PCR analysis; type: functional, Hepacivirus hominis
[13] = system: Hepatitis C virus; assay: Antiviral activity against HCV subtype 1a infected in Huh-7 cells assessed as reduction in viral RNA level at 69.6 uM after 8 to 10 days by quantitative PCR analysis; type: functional, Hepacivirus hominis
[14] = system: Hepatitis C virus; assay: Antiviral activity against HCV subtype 1a infected in Huh-7 cells assessed as reduction in viral RNA level at 79.4 uM after 8 to 10 days by quantitative PCR analysis; type: functional, Hepacivirus hominis
[15] = system: Hepatitis C virus; assay: Antiviral activity against HCV subtype 1a infected in Huh-7 cells assessed as reduction in viral RNA level at 35.6 uM after 8 to 10 days by quantitative PCR analysis; type: functional, Hepacivirus hominis
[16] = system: Hepatitis C virus; assay: Antiviral activity against HCV subtype 1a infected in Huh-7 cells assessed as reduction in viral RNA level at 75.2 uM after 8 to 10 days by quantitative PCR analysis; type: functional, Hepacivirus hominis
[17] = system: Hepatitis C virus; assay: Antiviral activity against HCV subtype 1a infected in Huh-7 cells assessed as reduction in viral RNA level at 84.4 uM after 8 to 10 days by quantitative PCR analysis; type: functional, Hepacivirus hominis
[18] = system: Hepatitis C virus; assay: Antiviral activity against HCV subtype 1a infected in Huh-7 cells assessed as reduction in viral RNA level at 71.4 uM after 8 to 10 days by quantitative PCR analysis; type: functional, Hepacivirus hominis
[19] = system: Hepatitis C virus; assay: Antiviral activity against HCV subtype 1a infected in Huh-7 cells assessed as reduction in viral RNA level at 67.7 uM after 8 to 10 days by quantitative PCR analysis; type: functional, Hepacivirus hominis

SMILES | Ratio CC50/EC50 [3] | CC50 at 48 h [4] | EC50 [5] | other results
CCc1cn([C@@H]2O[C@H](C(=O)OC)[C@@H](O)[C@@H]2F)c(=O)[nH]c1=O | >10 | > 829 µM | 33.1 µM | fractional inhibitory concentration index (FICI) [1]: 0.3; inhibition at 33.1 µM [2]: 50%; inhibition at 66.2 µM [6]: 65%
COC(=O)[C@H]1O[C@@H](n2ccc(=O)[nH]c2=O)[C@H](F)[C@@H]1O | >10 | > 912 µM | > 72.9 µM | inhibition at 72.9 µM [7]: 43%
COC(=O)[C@@H]1CC[C@H](n2ccc(=O)[nH]c2=O)O1 | >10 | > 1040 µM | – | inhibition at 83.3 µM [8]: 0%
CCc1cn([C@@H]2O[C@H](C(N)=O)[C@@H](O)[C@@H]2F)c(=O)[nH]c1=O | >10 | > 871 µM | – | inhibition at 69.7 µM [9]: 20%
COC(=O)[C@H]1O[C@@H](n2cc(C)c(=O)[nH]c2=O)C[C@@H]1Cl | >10 | > 868 µM | 43.4 µM | inhibition at 69.4 µM [10]: 58%
NC(=O)c1ncn([C@@H]2O[C@H](CO)[C@@H](O)[C@H]2O)n1 [RIBAVIRIN] | >10 | – | – | inhibition at 41 µM [11]: 32%; inhibition at 81.9 µM [12]: 50%
COC(=O)[C@H]1O[C@@H](n2ccc(=O)[nH]c2=O)[C@H](OC)[C@@H]1O | >10 | > 874 µM | 69.6 µM | inhibition at 69.6 µM [13]: 53%
COC(=O)[C@H]1O[C@@H](n2cc(C)c(=O)[nH]c2=O)[C@H](F)[C@@H]1O | >10 | > 868 µM | 43.4 µM | inhibition at 69.4 µM [10]: 56%
COC(=O)C1=CC[C@H](n2cc(C)c(=O)[nH]c2=O)O1 | >10 | > 992 µM | 79.4 µM | inhibition at 79.4 µM [14]: 50%
COC(=O)[C@H]1O[C@@H](n2ccc(=O)[nH]c2=O)C[C@@H]1N=[N+]=[N-] | >10 | > 890 µM | 35.6 µM | inhibition at 35.6 µM [15]: 54%
[N-]=[N+]=N[C@H]1C[C@H](n2ccc(=O)[nH]c2=O)O[C@@H]1C(N)=O | >10 | > 940 µM | – | inhibition at 75.2 µM [16]: 10%
Cc1cn([C@H]2CC=C(C(N)=O)O2)c(=O)[nH]c1=O | >10 | > 1060 µM | – | inhibition at 84.4 µM [17]: 20%
Cc1cn([C@H]2C[C@H](N=[N+]=[N-])[C@@H](C(N)=O)O2)c(=O)[nH]c1=O | >10 | > 893 µM | – | inhibition at 71.4 µM [18]: 10%
COC(=O)[C@@H]1C=C[C@H](n2cc(C)c(=O)[nH]c2=O)O1 | >10 | > 992 µM | 49.6 µM | inhibition at 79.4 µM [14]: 58%
COC(=O)[C@H]1O[C@@H](n2cc(C)c(=O)[nH]c2=O)C[C@@H]1N=[N+]=[N-] | >10 | > 847 µM | 33.9 µM | inhibition at 67.7 µM [19]: 60%

Reference: ChEMBL document CHEMBL3124855, “4'-Substituted pyrimidine nucleosides lacking 5'-hydroxyl function as potential anti-HCV agents” (Bioorg Med Chem Lett, 2014)
